In patent US12109207B2, “Methods of using 4(1H)-quinolone derivatives” (Academia Sinica, priority 2019, dated 2024):
Read-outs that look alike come from different tables or passages of the source.

Legend:
[1] = molecular target: colchicine site of tubulin (Sus scrofa, UniProt P02554); assay: Colchicine competition assay; assay type: binding; conditions: 37° C. for 1 h
Experimental: Tubulin ([…]) and colchicine ([…]) were incubated with the various concentrations of AS1712, nocodazole, or vincristine in 80 mM PIPES, 2 mM MgCl2, 0.5 mM EGTA, pH 6.9 at 37° C. for 1 h. Fluorescence intensities (excitation and emission wavelengths at 365 and 435 nm, respectively) were recorded using an Infinite M200 plate reader (Tecan). Fluorescence values were normalized to the DMSO control.

Purified porcine tubulin = molecular target: T1, Purified porcine tubulin (Sus scrofa, UniProt P02554); assay: In vitro tubulin polymerization assay; assay type: biochemical; conditions: 5 μM, A340 every min for 1 h at 37° C.
T1 construct: purchased Cytoskeleton
Experimental: Reagents from a Tubulin Polymerization Assay kit (Cytoskeleton) were used according to the manufacturer's instructions. Purified porcine tubulin (4 mg/mL; >99% purity) in G-PEM buffer (80 mM PIPES, 2 mM MgCl2, 0.5 mM EGTA, 1 mM GTP, 15% glycerol, pH 6.9) was mixed with each test compound in the wells of a 96-well plate. Then, the A340 value was recorded each minute for 1 h at 37° C. with the VersaMax microplate reader.

tubulin = tubulin (Sus scrofa, UniProt P02554); assay: Limited proteolysis assay; assay type: binding; conditions: 100 μM, 30 min at 30° C.
Experimental: Tubulin (1 mg/mL) was incubated individually with a test compound for 30 min at 30° C. in 0.1 M morpholino ethanesulfonic acid, 1 mM MgCl2, 1 mM EGTA, pH 6.9, and then 25 μg/mL trypsin (TPCK-treated, Sigma Aldrich; 1:40 [w/w] trypsin/tubulin) was added to the solution for a 10-min digestion at 4° C. Samples were electrophoresed through a 15% SDS-PAGE gel and stained with Coomassie brilliant blue R250. The images were scanned and quantified using a BioSpectrum Imaging System (UVP).

KBtax = assay: Cell cytotoxicity assay (MTS), KBtax; assay type: cell-based, human; conditions: for IC50: Homo sapiens, KBtax, P-gp overexpressing, paclitaxel-selected KB subline; for RF, resistance factor (IC50 in resistant cell line/IC50 in parent cell line): KBtax vs KB
Experimental: (§1) Cells were seeded into the wells of 96-well plates (2000 cells/well). After an overnight culture, the cells were treated with different concentrations of a compound for 72 h. The CellTiter 96 AQueous one-solution cell proliferation assay (MTS) reagent was used to determine cytotoxicity. After treatment with a compound, 20 μL of the MTS reagent was added to each well and the plates were incubated at 37° C. for 1-4 h. Next, the absorbance at 490 nm of the culture medium in each well was determined using a VersaMax microplate reader (Molecular Devices).

KBvin = assay: Cell cytotoxicity assay (MTS), KBvin; assay type: cell-based, human; conditions: for IC50: Homo sapiens, KBvin, P-gp overexpressing, vincristine-selected KB subline; for RF, resistance factor (IC50 in resistant cell line/IC50 in parent cell line): KBvin vs KB
Experimental: as §1

KB = assay: Cell cytotoxicity assay (MTS), KB; assay type: cell-based; conditions: Homo sapiens
Experimental: as §1

CEM/VBL = assay: Cell cytotoxicity assay (MTS), CEM/VBL; assay type: cell-based, human; conditions: for RF, resistance factor (IC50 in resistant cell line/IC50 in parent cell line): CEM/VBL vs CCRF-CEM; for IC50: Homo sapiens, CEM/VBL, P-gp overexpressing, vinblastine-selected CCRF-CEM subline
Experimental: as §1

CCRF-CEM = assay: Cell cytotoxicity assay (MTS), CCRF-CEM; assay type: cell-based; conditions: Homo sapiens
Experimental: as §1

MDA-MB-231 = assay: Cell cytotoxicity assay (MTS), MDA-MB-231; assay type: cell-based; conditions: Homo sapiens, MDA-MB-231, 72 h
Experimental: as §1

BT-549 = assay: Cell cytotoxicity assay (MTS), BT-549; assay type: cell-based; conditions: Homo sapiens, BT-549, 72 h
Experimental: as §1

82T = assay: Cell cytotoxicity assay (MTS), 82T; assay type: cell-based; conditions: Homo sapiens, 72 h
Experimental: as §1

[2] = test system: human fibroblast (HFB) cells; assay: Cell cytotoxicity assay (MTS), human fibroblast; assay type: cell-based; conditions: normal cell line HFB
Experimental: as §1

[3] = test system: MDA-MB-231 xenograft tumors; assay: MDA-MB-231 xenograft tumor model; assay type: in vivo, BALB/c nude mice; conditions: day 35
Experimental: (§2) Using the H1975, MDA-MB-231, and KBtax xenograft models, tumors were established after inoculation into the right flanks of 6-week-old BALB/c nude mice (NARLabs, Taipei, Taiwan). After establishment of the tumors, vehicle and test compounds, which had been dissolved in DMSO, were each injected intraperitoneally into a separate group of animals three times per week. The body mass of each animal and tumor volumes were measured before each drug delivery. Tumor volume was calculated as 0.5W^2L (with W being the width of the smaller diameter and L being the length of the larger diameter). The animal experiment was carried out in accordance with the procedures and guidelines of the Institutional Animal Care and Use Committee, Institute of Biomedical Sciences, Academia Sinica.

37T = assay: Cell cytotoxicity assay (MTS), 37T; assay type: cell-based; conditions: Homo sapiens, 72 h
Experimental: as §1

[4] = Body mass, MDA-MB-231 xenograft mice; assay type: in vivo, BALB/c nude mice; conditions: 4 or 8 mg/kg i.p. three times a week, 35 days
Experimental: as §2

P-gp expression = P-gp expression immunoblotting in KBtax cells; assay type: cell-based, human; conditions: 24 h
Experimental: The cells were harvested and lysed in RIPA buffer (20 mM Tris-HCl, 150 mM NaCl, 1 mM Na2EDTA, 1% sodium deoxycholate, 1% IGEPAL CA-630, 0.1% SDS, pH 7.5) with protease inhibitors (Roche). Protein concentration was measured by the BCA assay. For immunoprecipitation, protein extracts were incubated with mag-beads-AS1712 or mag-beads-control at 4° C. overnight and then washed five times with PBS before immunoblotting. For immunoblotting, equivalent amounts of denatured proteins were separated through SDS-PAGE gels and then transferred to PVDF membranes (Millipore), which were each blocked with 5% nonfat milk in PBS and 0.1% Tween-20 (Sigma Aldrich) for 1 h. Then each membrane was incubated with a primary antibody overnight at 4° C., followed by incubation with a horseradish peroxidase conjugated secondary antibody for 1 h at room temperature. The signal was visualized by enhanced chemiluminescence detection, and images were acquired using a BioSpectrum Imaging System (UVP).

P-gp = molecular target: T2, P-gp (Homo sapiens, UniProt P08183); assay: Rhodamine efflux assay; assay type: cell-based; conditions: KBtax cells
T2 construct: KBtax, KBvin, and CEM/VBL cancer cell lines, which overexpress P-gp; endogenous in cells; host or cells: KBtax cells (paclitaxel-selected subline of human KB)
Experimental: KBtax cells (2.5×10^5/test) were collected and held on ice for 1 h in cold medium with […] rhodamine. Then, the cells were resuspended in medium warmed to 37° C. with one of the indicated compounds and incubated for 1 h in a water bath at the same temperature for efflux determination. The fluorescence intensities were quantified by FACSCanto flow cytometry.

[5] = Body mass and serum biochemical markers, KBtax xenograft mice; assay type: in vivo, BALB/c nude mice
Experimental: The body mass of each animal and tumor volumes were measured before each drug delivery. Tumor volume was calculated as 0.5W^2L (with W being the width of the smaller diameter and L being the length of the larger diameter). The animal experiment was carried out in accordance with the procedures and guidelines of the Institutional Animal Care and Use Committee, Institute of Biomedical Sciences, Academia Sinica.

HDQP1/TAX = assay: Cell cytotoxicity assay, HDQP1/TAX; assay type: cell-based, human; conditions: for RF, resistance factor (IC50 in resistant cell line/IC50 in parent cell line): HDQP1/TAX vs HDQP1; for IC50: Homo sapiens, HDQ-P1, Paclitaxel-resistant subline
Experimental: as §1

Hs578t = assay: Cell cytotoxicity assay (MTS), Hs578t; assay type: cell-based; conditions: Homo sapiens, Hs-578T, 72 h
Experimental: as §1

KBtax xenograft tumors = assay: KBtax xenograft tumor model; assay type: in vivo, BALB/c nude mice; conditions: for average tumor size: after 21 days, i.p. three times a week, paclitaxel 15 mg/kg, RJ-LC-15-8 8 mg/kg
Experimental: as §2

HDQP1 = assay: Cell cytotoxicity assay, HDQP1; assay type: cell-based; conditions: Homo sapiens, HDQ-P1; TNBC cell line HDQP1
Experimental: as §1

H1975 xenograft tumor = H1975 xenograft tumor model; assay type: in vivo, BALB/c nude mice; conditions: day 21
Experimental: as §2

H1975 cells = assay: Cell cytotoxicity assay (MTS), H1975; assay type: cell-based, human; conditions: Homo sapiens, read-out: IC50
Experimental: as §1

[6] = Body mass and serum biochemical markers, H1975 xenograft mice; assay type: in vivo, BALB/c nude mice; conditions: 4 or 8 mg/kg i.p. three times a week, end of experiment
Experimental: as §2

TNBC cell lines = assay: Cytotoxicity against triple-negative breast cancer cell lines; assay type: cell-based; conditions: Homo sapiens; BT-549, Hs578t, MDA-MB-231, 37T, 82T; 72 h MTS; read-out: IC50 values in different TNBC cell lines
Experimental: as §1

[7] = 4 mg/kg intraperitoneally three times a week
[8] = 8 mg/kg intraperitoneally three times a week
[9] = end of experiment, paclitaxel 15 mg/kg, RJ-LC-15-8 8 mg/kg, mean ± SEM

Compound | colchicine fluorescence [1] | tubulin polymerization (Purified porcine tubulin) | tryptic pattern after limited trypsin digestion (tubulin) | IC50 (KBtax) | IC50 (KBvin) | RF, resistance factor (IC50 in resistant cell line/IC50 in parent cell line) (KBvin) | IC50 (KB) | RF, resistance factor (IC50 in resistant cell line/IC50 in parent cell line) (CEM/VBL) | IC50 (CEM/VBL) | IC50 (CCRF-CEM) | RF, resistance factor (IC50 in resistant cell line/IC50 in parent cell line) (KBtax) | AST(IU/L) [5, 9] | BUN [5, 9] | Cre [5, 9] | RF, resistance factor (IC50 in resistant cell line/IC50 in parent cell line) (HDQP1/TAX) | IC50 (HDQP1/TAX) | average tumor size (KBtax xenograft tumors) | IC50 (HDQP1) | further results
COC(=O)Nc1nc2ccc(C(=O)c3cccs3)cc2[nH]1 [nocodazole] | decreased the colchicine fluorescence in a dose-dependent manner | inhibit tubulin polymerization | produced an increased amount of βcol | – | – | – | – | – | – | – | – | – | – | – | – | – | – | – | –
CC[C@]1(O)C[C@H]2CN(CCc3c([nH]c4ccccc34)[C@@](C(=O)OC)(c3cc4c(cc3OC)N(C=O)[C@H]3[C@@](O)(C(=O)OC)[C@H](OC(C)=O)[C@]5(CC)C=CCN6CC[C@]43[C@@H]65)C2)C1 [Vincristine, vincristine] | did not | inhibit tubulin polymerization | decreased the amount of the βcol, αN, and αC fragments | 0.049 ± 0.00296 µM | 0.817 ± 0.0474 µM | 163 | 0.005 ± 0.00031 µM | 440 | 1.32 ± 0.0206 µM | 0.003 ± 4e-05 µM | – | – | – | – | – | – | – | – | –
CCOC(=O)c1ccc2[nH]c(-c3cccc(F)c3)cc(=O)c2c1 [RJ-LC-15-8, Ethyl 2-(3-fluorophenyl)-4-oxo-1,4-dihydroquinoline-6-carboxylate] | – | direct inhibition | – | 0.03 ± 0.00135 µM | 0.035 ± 0.00088 µM | 1 | 0.034 ± 0.00039 µM | 0.8 | 0.016 ± 0.00052 µM | 0.02 ± 0.00171 µM | 0.88 | 120.7 ± 27.5 IU/L | 18.2 ± 1 mg/dL | 0.26 ± 0.04 mg/dL | 1.02 | 0.04 ± 0.00326 µM | 528.4±101.6 mm^3 | 0.039 ± 0.00049 µM | IC50 (MDA-MB-231): 0.035 ± 0.00145 µM; IC50 (BT-549): 0.021 ± 0.00114 µM; IC50 (82T): 0.023 ± 0.00127 µM; IC50 [2]: > 10 µM; average tumor size [3, 7]: 105±9.4 mm^3; average tumor size [3, 8]: 73.6±8.2 mm^3; IC50 (37T): 0.022 ± 0.00061 µM; body mass [4]: did not affect; P-gp expression (P-gp expression): did not affect; P-gp pump activity (P-gp): did not directly inhibit; Body mass and serum biochemical markers for liver and kidney functions ([5]; 8 mg/kg, end of the experiment): not negatively affected; ALT (IU/L) [5, 9]: 64 ± 10.8 IU/L; IC50 (Hs578t): 0.034 ± 0.00471 µM; TUNEL staining of the tumor tissues (KBtax xenograft tumors; 8 mg/kg, 21 days): induced apoptosis; average tumor size (H1975 xenograft tumor; [7]): 1333±121.9 mm^3; average tumor size (H1975 xenograft tumor; [8]): 972.5±52.3 mm^3; IC50 (H1975 cells; NCI-H1975, 72 h, H1975 cells, 72 h, MTS): 0.024 µM; IC50 (H1975 cells; NCI-H1975, Table 8, cell line not given, values match H1975): 0.024 ± 0.001 µM; body mass [6]: not affected; IC50 (TNBC cell lines): 0.021 to 0.035 µM
CC(=O)O[C@H]1C(=O)[C@@]2(C)[C@H]([C@H](OC(=O)c3ccccc3)[C@]3(O)C[C@H](OC(=O)[C@H](O)[C@@H](NC(=O)c4ccccc4)c4ccccc4)C(C)=C1C3(C)C)[C@]1(OC(C)=O)CO[C@@H]1C[C@@H]2O [Paclitaxel, paclitaxel] | – | enhanced polymerization | – | 0.101 ± 0.00552 µM | 0.708 ± 0.0469 µM | 70 | – | 214 | 0.857 ± 0.00989 µM | 0.004 ± 2e-05 µM | 10 | 102.8 ± 18.9 IU/L | 19 ± 1.3 mg/dL | 0.16 ± 0.02 mg/dL | 167 | 0.839 ± 0.142 µM | 868.7±121.4 mm^3 | 0.005 ± 0.00305 µM | –
